The values that follow come from publication PMC6105598, “Targeting protein-protein interactions for therapeutic discovery via FRET-based high-throughput screening in living cells” (Scientific Reports, 2018).

The target of experiment [1] is T1, cardiac SR (SERCA2a + PLB) (Sus scrofa, UniProt P11607).
T1 construct: Cardiac SR membrane vesicles were isolated from ventricular myocardium obtained from fresh pig hearts; from tissue; host or cells: pig ventricular myocardium, SR membrane vesicles
Kind of experiment: Ca-ATPase activity of cardiac SR (CSR), NADH-linked enzyme-coupled assay. Format: biochemical, pig. To be noted: CSR, 30 µM compound. The method, then:
To characterize the relationship between the structural readout (FRET) and the functional effects, in vitro Ca-ATPase assays were performed on cardiac SR (which contains both SERCA2a and PLB). […] To further examine the functional effects of Hit compounds, Ca-ATPase assays were performed on both skeletal SR (SERCA1a only) and cardiac SR (SERCA2a + PLB) at a series of Ca concentrations ranging from pCa 5 to 8.
(§1) Skeletal muscle SR membrane vesicles were isolated from longissimus dorsi obtained from New Zealand white rabbits, as previously described. Cardiac SR membrane vesicles were isolated from ventricular myocardium obtained from fresh pig hearts. All experimental protocols were reviewed and approved by University of Minnesota’s Institutional Animal Care and Use Committee, an Association for Assessment and Accreditation of Laboratory Animal Care institution.
(§2) An enzyme-coupled, NADH-linked ATPase assay was used to measure SERCA ATPase activity in 96-well microplates. Each well contained 0.8 μg (skeletal) or 2 μg (cardiac) of SR vesicles adjusted for the different SERCA contents of skeletal and cardiac SR, 50 mM MOPS (pH 7.0), 100 mM KCl, 5 mM MgCl2, 1 mM EGTA, 0.2 mM NADH, 1 mM phosphoenol pyruvate, 10 IU/mL of pyruvate kinase, 10 IU/mL of lactate dehydrogenase, 3.5 μg/mL of the Ca ionophore A23187, and CaCl2 added to set free [Ca] to the desired values. The assay was started upon the addition of ATP at a final concentration of 5 mM and read in a SpectraMax Plus microplate spectrophotometer rom Molecular Devices (Sunnyvale, CA).

Experiment [2] concerns the target T2, SERCA2a-PLB complex (GFP-SERCA2a / RFP-PLB in HEK293 cells) (Homo sapiens, UniProt P16615+P26678, C36A/C41F/C46A). Kind of experiment: SERCA2a-PLB TR-FRET (fluorescence lifetime) biosensor assay in living cells. To be noted: for ΔFLT: compound incubation for 20 min, uncertainty (1 S.D.) 11 ps. Also on record: expressed in transfected cells; host or cells: HEK293. The class given is cell-based. For orientation: Time-resolved FRET reads energy transfer from a long-lived donor to a nearby acceptor.

Experiment [3] deals with T3, skeletal SR (SERCA1a only) (Oryctolagus cuniculus, UniProt P04191).
T3 construct: Skeletal muscle SR membrane vesicles were isolated from longissimus dorsi obtained from New Zealand white rabbits; from tissue; host or cells: rabbit longissimus dorsi skeletal muscle, SR membrane vesicles
T3 sequence (P04191 1-994 isoform P04191-2): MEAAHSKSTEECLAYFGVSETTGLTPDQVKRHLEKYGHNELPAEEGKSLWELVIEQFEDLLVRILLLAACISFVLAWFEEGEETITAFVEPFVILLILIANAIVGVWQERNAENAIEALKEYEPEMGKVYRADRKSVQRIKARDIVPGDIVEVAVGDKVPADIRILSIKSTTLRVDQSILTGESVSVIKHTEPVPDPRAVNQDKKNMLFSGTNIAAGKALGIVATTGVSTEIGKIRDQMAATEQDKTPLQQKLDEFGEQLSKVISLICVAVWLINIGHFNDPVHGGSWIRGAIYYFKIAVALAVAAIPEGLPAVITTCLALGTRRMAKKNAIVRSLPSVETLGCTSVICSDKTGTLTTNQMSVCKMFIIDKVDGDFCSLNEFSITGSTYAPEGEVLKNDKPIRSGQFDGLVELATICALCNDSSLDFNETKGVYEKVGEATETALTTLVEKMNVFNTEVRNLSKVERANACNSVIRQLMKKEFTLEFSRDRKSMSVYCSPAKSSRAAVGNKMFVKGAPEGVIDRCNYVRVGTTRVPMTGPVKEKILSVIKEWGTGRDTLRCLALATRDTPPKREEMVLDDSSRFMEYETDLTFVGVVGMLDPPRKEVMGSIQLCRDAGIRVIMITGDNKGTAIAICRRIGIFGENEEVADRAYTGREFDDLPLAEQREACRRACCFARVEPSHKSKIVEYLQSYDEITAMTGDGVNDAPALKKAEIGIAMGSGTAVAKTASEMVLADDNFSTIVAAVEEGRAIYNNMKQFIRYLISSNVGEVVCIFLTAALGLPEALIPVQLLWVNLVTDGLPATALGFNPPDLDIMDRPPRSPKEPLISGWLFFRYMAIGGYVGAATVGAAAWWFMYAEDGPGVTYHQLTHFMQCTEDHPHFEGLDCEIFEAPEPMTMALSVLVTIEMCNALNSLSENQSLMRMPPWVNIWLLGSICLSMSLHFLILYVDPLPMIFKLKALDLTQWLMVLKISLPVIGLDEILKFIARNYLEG
As to the kind of experiment: Ca-ATPase activity of skeletal SR (SSR), NADH-linked enzyme-coupled assay. The class given is biochemical, rabbit. Here is the method: To further examine the functional effects of Hit compounds, Ca-ATPase assays were performed on both skeletal SR (SERCA1a only) and cardiac SR (SERCA2a + PLB) at a series of Ca concentrations ranging from pCa 5 to 8.
as §1, §2

Experiment [4] has as its target T2, SERCA2a-PLB complex (GFP-SERCA2a / RFP-PLB in HEK293 cells). As to the kind of experiment: FRET of SERCA2a-PLB biosensor in saponin-permeabilized cells at low and high Ca. To be noted: 100 nM Tg, low Ca (100 nM) vs high Ca (10 µM).
Description: To test this, we quantified FRET changes in permeabilized cells under conditions of low Ca (100 nM) and high Ca (10 µM).
(a) Left- FLT measurements in saponin-permeabilized cells under conditions of low Ca (100 nM) and high Ca (10 µM), and in the absence and presence (100 nM) of the SERCA inhibitor thapsigargin (Tg). […] Error bars indicate SD (n = 3). Statistical differences determined using 1-way ANOVA followed by Tukey post hoc analysis (more detailed analysis is provided in Supplemental Table 4). *P ≤ 0.01 and N.S. indicating P ≥ 0.05.
To generate SERCA2a-PLB biosensor, HEK293 cells were transiently transfected using Lipofectamine 3000 with GFP-SERCA2a and RFP-PLB in a 1:7 molar ratio for the screen. Cells were then assayed 48 hours post-transfection. For cell permeabilization experiments, cells were trypsinized (TrypLE, Thermo Fischer Scientific), PBS-washed (three times), and resuspended in a homogenization buffer (20 mM MOPS, 0.5 MgCl2, protease inhibitor cocktail (Roche, Basel, Switzerland)). Saponin (Sigma-Aldrich) was added to a final concentration of 10 µg/mL and cells were incubated for 4 min at 37 °C water bath. Saponin was removed by centrifugation for 3 min, cells were washed twice with homogenization buffer, and resuspended in homogenization buffer.
Experiment [5] has as its system skeletal muscle SR Ca-ATPase. Also on record: method as in PMID 12022919. To be noted: high concentrations (50 µM); cited from earlier work.
In experiment [6] the target is GFP-SERCA2a (eGFP fused to the N-terminus of human cardiac sarcoplasmic reticulum Ca-ATPase SERCA2a) (human) (UniProt P16615). Kind of experiment: FRET or BRET; time-resolved FRET (donor fluorescence lifetime, plate reader) in live HEK293 cells co-expressing GFP-SERCA2a (donor) and increasing amounts of RFP-PLB (acceptor); value at saturating acceptor. (BRET reads energy transfer from a luciferase to a nearby fluorophore.)
Chain of GFP-SERCA2a (eGFP fused to the N-terminus of human cardiac sarcoplasmic reticulum Ca-ATPase SERCA2a) (human) (P16615 other isoform, or with tags, fused parts or gaps): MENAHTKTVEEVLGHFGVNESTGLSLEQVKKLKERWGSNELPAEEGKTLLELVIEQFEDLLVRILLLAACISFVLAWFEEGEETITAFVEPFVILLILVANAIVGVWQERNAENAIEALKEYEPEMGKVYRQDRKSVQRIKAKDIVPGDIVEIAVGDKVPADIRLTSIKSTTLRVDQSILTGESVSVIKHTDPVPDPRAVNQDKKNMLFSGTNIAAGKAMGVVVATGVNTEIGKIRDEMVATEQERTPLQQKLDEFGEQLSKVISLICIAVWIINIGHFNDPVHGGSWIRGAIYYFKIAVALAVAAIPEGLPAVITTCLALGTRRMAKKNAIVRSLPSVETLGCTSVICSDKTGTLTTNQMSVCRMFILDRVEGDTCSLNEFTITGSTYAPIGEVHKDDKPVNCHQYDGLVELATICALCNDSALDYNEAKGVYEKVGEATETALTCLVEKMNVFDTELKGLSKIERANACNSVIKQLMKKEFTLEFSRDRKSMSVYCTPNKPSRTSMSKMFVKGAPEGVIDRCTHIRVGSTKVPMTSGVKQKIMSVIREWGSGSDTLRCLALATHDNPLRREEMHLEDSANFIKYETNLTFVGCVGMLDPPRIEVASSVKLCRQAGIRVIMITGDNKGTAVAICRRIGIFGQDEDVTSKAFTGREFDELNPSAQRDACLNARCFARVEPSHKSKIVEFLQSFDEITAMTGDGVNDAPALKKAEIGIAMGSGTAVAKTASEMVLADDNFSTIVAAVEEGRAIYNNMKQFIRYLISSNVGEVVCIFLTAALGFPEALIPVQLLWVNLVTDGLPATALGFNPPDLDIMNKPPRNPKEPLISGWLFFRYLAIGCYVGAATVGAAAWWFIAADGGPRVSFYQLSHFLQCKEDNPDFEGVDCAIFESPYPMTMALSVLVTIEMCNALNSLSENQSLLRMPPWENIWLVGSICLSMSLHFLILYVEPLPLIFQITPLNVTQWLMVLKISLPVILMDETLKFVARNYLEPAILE

Experiment [7] shares this target. Kind of experiment: FRET or BRET; time-resolved FRET (donor fluorescence lifetime) in saponin-permeabilized HEK293 cells, high Ca (10 µM); also tested with 100 nM thapsigargin, which prevents the Ca-dependent decrease in FRET.
The target is the same in experiment [8]. Kind of experiment: FRET or BRET; time-resolved FRET (donor fluorescence lifetime) in saponin-permeabilized HEK293 cells, low Ca (100 nM); also tested with 100 nM thapsigargin.

pEC50: −log10 of the molar value.

T2 sequence (P16615 1-997 isoform P16615-2, stated change not applied): as the sequence (P16615 other isoform, or with tags, fused parts or gaps) above
T2 sequence (P26678 whole entry C36A/C41F/C46A): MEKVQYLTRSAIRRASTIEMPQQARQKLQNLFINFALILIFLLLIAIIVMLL
Chain of RFP-PLB (tagRFP fused to the N-terminus of a monomeric mutant of human phospholamban) (P26678 whole entry C36A/C46A, change not shown, the tested form may be a part): as the sequence (P26678 whole entry C36A/C41F/C46A) above, with F41C counted along it
T1 sequence (P11607 1-997 isoform P11607-2): as the sequence (P16615 other isoform, or with tags, fused parts or gaps) above, with R371K, N403K, S538P, L570M, H576N, D667E, A713S, S865T, I889V, V963L counted along it
T1 sequence (P61013 whole entry partner): as the sequence (P26678 whole entry C36A/C41F/C46A) above, with E2D, K27N, A36C, F41C, A46C counted along it

Regarding `NC(=O)N1C(=O)/C(=C(\O)c2cccs2)c2cc(Cl)ccc21` [Tenidap], the “Vmax @ 30 µM” value stood at 0.66 i.u in experiment [1] and 2.66 i.u in experiment [3] (SSR, 30 µM compound). Further, the “ΔVmax @ 30 µM” value in experiment [1] (relative to DMSO control) was -1.7%. Moreover, in experiment [2], the pEC50 (as a rule, the negative decadic logarithm of the EC50, by convention in mol/L) was below 4.00. Moreover, the ΔFLT in experiment [2] (final concentration 10 µM) is listed as 8 ps; in experiment [2] (final concentration 100 µM), -68 ps. The percent change in Vmax vs DMSO control at 30 µM in experiment [3] (SSR, 30 µM compound, relative to DMSO control, read-out: ΔVmax @ 30 µM) amounted to 1.8%.

In the case of `C/C=C(/C)C(=O)O[C@H]1C(C)=C2[C@H]([C@@H]1OC(=O)CCCCCCC)[C@@](C)(OC(C)=O)C[C@H](OC(=O)CCC)[C@@]1(O)[C@H]2OC(=O)[C@@]1(C)O` [thapsigargin], in experiment [4], the “effect on Ca-dependent decrease in FRET” value is “prevents the Ca-dependent decreases in FRET”.

On to Ivermectin, for which the pEC50 in experiment [3] (SSR) is 5.24; in experiment [3] (SSR, listed as ivermectin), 5.24. Besides, the “Vmax @ 30 µM” value in experiment [3] (SSR, 30 µM compound) was 0.32 i.u. Moreover, the “ΔVmax @ 30 µM” value in experiment [3] (SSR, 30 µM compound, relative to DMSO control) is -87.6%. In addition, the “decrease of Vmax” value in experiment [3] (skeletal SR) is listed as 88%. Besides, the Ca-ATPase activity inhibited in experiment [5] is recorded as 90%.

In experiment [6], “RFP-PLB (tagRFP fused to the N-terminus of a monomeric mutant of human phospholamban) (from UniProt P26678 1-52) (natural protein)” came in with a maximum FRET efficiency E of 0.103. In addition, the values for the FRET efficiency E in experiment [7] and in experiment [8] were 0.11 and 0.14, respectively.
